Laboratory results taken from paper PMC7933985 (The Journal of General Physiology, 2021).
Numbering of substitutions follows the chain as printed. Where two headings read alike, the source gives them in different places. Values belong to the compound of their own block, whether it stands above or below them.

Assays:
MEC-4d = biological target: T1, MEC-4d (Caenorhabditis elegans, UniProt P24612, A713T); assay: Two-electrode voltage clamp of oocytes coexpressing MEC-2 and MEC-4d; assay type: cell-based, C. elegans; details: for effect on MEC-4d current: 30 µM
T1 sequence (P24612 1-768 A713T): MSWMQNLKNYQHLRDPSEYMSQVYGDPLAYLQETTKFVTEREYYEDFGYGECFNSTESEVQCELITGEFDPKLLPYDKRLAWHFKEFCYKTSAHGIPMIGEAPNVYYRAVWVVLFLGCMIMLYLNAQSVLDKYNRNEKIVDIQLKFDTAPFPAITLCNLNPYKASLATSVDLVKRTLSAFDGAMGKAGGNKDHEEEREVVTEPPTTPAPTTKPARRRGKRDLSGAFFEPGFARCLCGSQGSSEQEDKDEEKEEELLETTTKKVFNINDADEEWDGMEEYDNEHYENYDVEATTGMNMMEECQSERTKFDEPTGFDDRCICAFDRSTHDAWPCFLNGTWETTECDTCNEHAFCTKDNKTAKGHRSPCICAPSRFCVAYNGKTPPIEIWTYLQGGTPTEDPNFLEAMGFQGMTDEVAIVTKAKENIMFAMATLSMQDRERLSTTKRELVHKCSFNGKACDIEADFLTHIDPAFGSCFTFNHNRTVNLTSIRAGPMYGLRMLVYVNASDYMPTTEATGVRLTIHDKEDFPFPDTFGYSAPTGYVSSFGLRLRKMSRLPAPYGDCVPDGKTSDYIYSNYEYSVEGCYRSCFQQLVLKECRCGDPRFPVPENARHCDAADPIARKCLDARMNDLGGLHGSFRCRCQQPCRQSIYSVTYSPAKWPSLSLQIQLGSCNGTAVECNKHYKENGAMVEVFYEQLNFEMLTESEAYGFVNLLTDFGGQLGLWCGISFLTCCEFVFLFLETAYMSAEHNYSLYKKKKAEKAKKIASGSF

DEGT-1d = assay: Two-electrode voltage clamp of oocytes coexpressing MEC-2 and DEGT-1d; assay type: cell-based, C. elegans; details: for effect on DEGT-1d current: 30 µM; for ΔIdrug, change in current compared with uninjected oocytes: −85 mV, coexpressed with MEC-2
UNC-8d [1] = biological target: T2, UNC-8d (Caenorhabditis elegans, UniProt Q21974, G387E); assay: Two-electrode voltage clamp of oocytes coexpressing MEC-2 and UNC-8d; assay type: cell-based, C. elegans; details: for effect on UNC-8d current: 30 µM; for IC50: control saline (divalent-containing solution)
T2 sequence (Q21974 1-737 isoform Q21974-4 G347E): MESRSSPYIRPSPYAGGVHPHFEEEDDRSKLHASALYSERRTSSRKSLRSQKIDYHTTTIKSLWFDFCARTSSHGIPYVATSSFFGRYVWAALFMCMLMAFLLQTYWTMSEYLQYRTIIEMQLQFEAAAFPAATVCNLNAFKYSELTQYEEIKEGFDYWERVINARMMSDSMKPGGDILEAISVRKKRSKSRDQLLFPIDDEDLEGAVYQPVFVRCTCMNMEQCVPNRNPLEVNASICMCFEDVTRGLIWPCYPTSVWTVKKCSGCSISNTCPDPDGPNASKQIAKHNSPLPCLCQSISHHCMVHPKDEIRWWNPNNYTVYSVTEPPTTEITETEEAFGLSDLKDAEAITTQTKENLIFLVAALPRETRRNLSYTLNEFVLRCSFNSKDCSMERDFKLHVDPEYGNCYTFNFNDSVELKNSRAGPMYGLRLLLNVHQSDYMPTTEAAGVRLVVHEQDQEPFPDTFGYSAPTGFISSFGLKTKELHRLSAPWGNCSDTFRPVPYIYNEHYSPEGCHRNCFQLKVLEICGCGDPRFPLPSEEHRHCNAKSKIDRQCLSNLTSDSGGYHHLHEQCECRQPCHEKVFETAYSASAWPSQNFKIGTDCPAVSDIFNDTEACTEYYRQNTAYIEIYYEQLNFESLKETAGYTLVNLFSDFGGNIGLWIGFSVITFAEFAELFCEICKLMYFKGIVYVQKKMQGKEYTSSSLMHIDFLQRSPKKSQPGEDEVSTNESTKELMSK

UNC-8d [2] = biological target: T2, UNC-8d; details: −100 mV, ref Miller-Fleming et al., 2016, cited from earlier work
MEC-4d(E704K) = biological target: T3, MEC-4d(E704K) (Caenorhabditis elegans, UniProt P24612, A713T/E704K); assay: cell-based; set-up: species or system C. elegans; details: for drug-induced change in current (Idrug) compared with absence of drug: 700 µM drug, −85 mV
T3 sequence (P24612 1-768 E704K/A713T): T1 sequence (P24612 1-768 A713T) with E704K

uninjected oocytes = assay: Two-electrode voltage clamp of uninjected; assay type: cell-based, Xenopus laevis; details: 30 µM
DEGT-1d alone = assay: Two-electrode voltage clamp of oocytes expressing DEGT-1d alone; assay type: cell-based, C. elegans; details: 300 µM amiloride, −85 mV, DEGT-1 alone without MEC-2
MEC-2 alone = biological target: T4, MEC-2 alone (Caenorhabditis elegans, UniProt Q27433); assay: Two-electrode voltage clamp of oocytes expressing MEC-2 alone; assay type: cell-based, C. elegans; details: 300 µM amiloride, −85 mV
T4 sequence (Q27433 1-481): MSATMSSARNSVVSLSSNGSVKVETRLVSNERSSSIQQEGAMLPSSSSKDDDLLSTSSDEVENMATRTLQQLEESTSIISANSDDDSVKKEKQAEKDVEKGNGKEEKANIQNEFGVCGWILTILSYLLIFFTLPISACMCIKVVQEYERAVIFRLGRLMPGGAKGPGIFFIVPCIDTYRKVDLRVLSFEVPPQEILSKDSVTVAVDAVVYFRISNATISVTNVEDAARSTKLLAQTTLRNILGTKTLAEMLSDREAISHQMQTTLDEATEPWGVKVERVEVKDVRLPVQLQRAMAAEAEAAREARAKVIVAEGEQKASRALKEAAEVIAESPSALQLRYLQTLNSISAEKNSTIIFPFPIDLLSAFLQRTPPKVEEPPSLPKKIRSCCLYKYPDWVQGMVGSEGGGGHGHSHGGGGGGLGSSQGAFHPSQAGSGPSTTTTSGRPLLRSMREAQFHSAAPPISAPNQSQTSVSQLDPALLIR

rASIC1a = details: allosteric effect; ref Lynagh et al., 2017; cited from earlier work

difference in drug-sensitive current compared with uninjected oocytes (ΔIdrug) (MEC-4d; 30 µM ibuprofen isomer): 4.7 µA
SMILES: CC(C)Cc1ccc([C@H](C)C(=O)O)cc1 [S-Ibu, S-ibuprofen]

effect on UNC-8d current (UNC-8d [1]): partially inhibit
SMILES: CC(C(=O)O)c1ccc(-c2ccccc2)c(F)c1 (stereo not shown) [Flurbiprofen, flurbiprofen]
effect on DEGT-1d current (DEGT-1d): partially inhibit

effect on MEC-4d current (MEC-4d): inhibited | effect on UNC-8d current (UNC-8d [1]): inhibited
SMILES: NC(=Nc1ccccc1)NC(=O)c1nc(Cl)c(N)nc1N [Phenamil, phenamil]

effect on UNC-8d current (UNC-8d [1]): partially inhibit
SMILES: O=C(O)Cc1ccccc1Nc1c(Cl)cccc1Cl [Diclofenac, diclofenac]

effect on MEC-4d current (MEC-4d): inhibited | effect on UNC-8d current (UNC-8d [1]): inhibited | IC50 (UNC-8d [1]; IC50, −60 mV): 14.8 ± 1.6 µM | IC50 (UNC-8d [1]; IC50, −100 mV): 15.1 µM | voltage dependence of block (UNC-8d [1]; voltages between −100 and −20 mV): not voltage-dependent
SMILES: NC(=NCc1ccccc1)NC(=O)c1nc(Cl)c(N)nc1N [Benzamil, benzamil]
IC50 (UNC-8d [2]; divalent-containing solution): 47 µM | IC50 (UNC-8d [2]; divalent-free solution): 119 µM

SMILES: O=C(O)c1ccccc1O [Salicylic acid, salicylic acid]
effect on DEGT-1d current (DEGT-1d): partially inhibit

effect on UNC-8d current (UNC-8d [1]): inhibited
SMILES: N=C(N)c1ccccc1 [Benzamidine, benzamidine]

EC50 (MEC-4d(E704K)): 179 ± 56 µM | drug-induced change in current (Idrug) compared with absence of drug (MEC-4d(E704K)): 6.53 µA | EC50 (MEC-4d): 79.9 ± 3.7 µM
SMILES: CC(=O)Oc1ccccc1C(=O)O [Aspirin, aspirin]
voltage dependence of potentiation (EC50 vs voltage) (MEC-4d): Neither drug showed evidence of voltage dependence

IC50 (MEC-4d): 3.06 ± 0.6 µM | voltage dependence of apparent affinity (block) (MEC-4d): insensitive to voltage | effect on MEC-4d current (MEC-4d): inhibited | effect on UNC-8d current (UNC-8d [1]): inhibited
SMILES: CCN(c1nc(N)c(C(=O)NC(=N)N)nc1Cl)C(C)C [EIPA, 5-(N-ethyl-N-isopropyl)amiloride]
effect on current in control (uninjected) oocytes (uninjected oocytes): no detectable effect | effect on DEGT-1d current (DEGT-1d): no detectable effect

ΔIdrug, change in current compared with uninjected oocytes (MEC-2 alone): −0.0067 µA | effect on MEC-4d current (MEC-4d): inhibited | effect on UNC-8d current (UNC-8d [1]): inhibited
SMILES: N=C(N)NC(=O)c1nc(Cl)c(N)nc1N [Amiloride, amiloride]
ΔIdrug, change in current compared with uninjected oocytes (DEGT-1d alone): 0.0288 µA | ΔIdrug, change in current compared with uninjected oocytes (DEGT-1d; 100 µM drug): 0.111 µA | ΔIdrug, change in current compared with uninjected oocytes (DEGT-1d; 300 µM drug): 0.0623 µA

drug-induced change in current (Idrug) compared with absence of drug (MEC-4d(E704K)): 10.7 µA | effect on MEC-4d current (MEC-4d): seems to potentiate | effect on UNC-8d current (UNC-8d [1]): modestly inhibits
SMILES: CC(C)Cc1ccc(C(C)C(=O)O)cc1 (stereo not shown) [Ibuprofen, ibuprofen]
effect on current in control (uninjected) oocytes (uninjected oocytes): little if any effect | effect on DEGT-1d current (DEGT-1d): modestly inhibits | ΔIdrug, change in current compared with uninjected oocytes (DEGT-1d; 100 µM drug): 0.19 µA | ΔIdrug, change in current compared with uninjected oocytes (DEGT-1d; 300 µM drug): 0.322 µA | effect on rASIC1a (rASIC1a): inhibited | voltage dependence of potentiation (EC50 vs voltage) (MEC-4d): Neither drug showed evidence of voltage dependence
